Several values for one entry are separate records, joined by “and”; a condition that tells them apart may be missing. Equal values may be shown once.
Columns and labels:
PIK3CB = PIK3CB (UniProt P42338); assay: Inhibition of PIK3CB Kinase Activity; conditions: for inhibition: concentration not given here
PIK3CD (Human) [1] = target: PIK3CD (Human) (UniProt O00329); assay: Evaluation of PIK3CD inhibitors on Elastase Release in Human PMN Cells
PIK3CA = PIK3CA (UniProt P42336); assay: Inhibition of PIK3CA Kinase Activity; conditions: for inhibition: concentration not given here
PIK3CD (Human) [2] = target: PIK3CD (Human) (UniProt O00329); assay: Evaluation of PIK3CD inhibitors on Neutrophil Migration; conditions: pmn
PIK3CD (mouse) [3] = assay: Assessment of Stimulus Induced B Cell Proliferation; conditions: b cells
PIK3CD (Human) [4] = target: PIK3CD (Human) (UniProt O00329); assay: Assessment of Stimulus Induced TCE Cell Proliferation; conditions: t cells
PIK3CD (Human) [5] = target: PIK3CD (Human) (UniProt O00329); assay: Evaluation of PIK3CD inhibitors on Basophil Function by Histamine Release Assay; conditions: basophils
PIK3CG = PIK3CG (UniProt P48736); assay: Inhibition of PIK3CG Kinase Activity; conditions: for inhibition: concentration not given here
PIK3CD (Human) [6] = target: PIK3CD (Human) (UniProt O00329); assay: Assessment of Cell Proliferation in KU812 Cells
PIK3CD (mouse) [7] = assay: Evaluation of PIK3CD inhibitors on Osteoclast Function; conditions: bone marrow, dose or concentration not given here
PIK3CD (Human) [8] = target: PIK3CD (Human) (UniProt O00329); assay: Assessment of RWLeu4 Cell Proliferation
PIK3CD = PIK3CD (UniProt O00329); assay: Inhibition of PIK3CD Kinase Activity
Chain of PIK3CD (O00329 whole entry, looked up): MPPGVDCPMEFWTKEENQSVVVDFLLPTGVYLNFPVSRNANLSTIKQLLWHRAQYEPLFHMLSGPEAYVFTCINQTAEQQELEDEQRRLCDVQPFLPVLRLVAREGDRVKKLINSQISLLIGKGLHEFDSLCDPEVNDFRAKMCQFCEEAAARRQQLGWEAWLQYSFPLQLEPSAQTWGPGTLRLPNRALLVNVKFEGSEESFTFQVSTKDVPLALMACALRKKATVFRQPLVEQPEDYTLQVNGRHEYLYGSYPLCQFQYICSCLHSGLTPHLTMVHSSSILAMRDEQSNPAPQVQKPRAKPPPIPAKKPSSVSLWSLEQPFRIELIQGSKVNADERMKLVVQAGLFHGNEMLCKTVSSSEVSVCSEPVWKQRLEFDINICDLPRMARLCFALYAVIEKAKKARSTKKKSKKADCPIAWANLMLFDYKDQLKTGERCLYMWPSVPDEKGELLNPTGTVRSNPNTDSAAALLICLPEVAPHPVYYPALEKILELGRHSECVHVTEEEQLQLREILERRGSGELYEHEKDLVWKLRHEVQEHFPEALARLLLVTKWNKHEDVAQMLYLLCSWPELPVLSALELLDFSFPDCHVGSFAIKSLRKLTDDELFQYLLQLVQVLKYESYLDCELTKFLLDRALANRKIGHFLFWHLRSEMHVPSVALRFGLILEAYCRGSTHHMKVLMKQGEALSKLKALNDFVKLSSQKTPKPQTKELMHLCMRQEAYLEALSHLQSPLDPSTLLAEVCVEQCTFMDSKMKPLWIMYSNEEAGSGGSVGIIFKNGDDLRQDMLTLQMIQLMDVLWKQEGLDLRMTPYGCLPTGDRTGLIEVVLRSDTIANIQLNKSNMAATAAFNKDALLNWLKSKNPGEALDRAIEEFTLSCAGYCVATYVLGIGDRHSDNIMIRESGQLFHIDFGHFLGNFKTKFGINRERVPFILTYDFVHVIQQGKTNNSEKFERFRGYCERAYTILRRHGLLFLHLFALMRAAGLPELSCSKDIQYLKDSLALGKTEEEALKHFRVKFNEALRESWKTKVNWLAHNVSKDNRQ

Chain of PIK3CD (Human) (O00329 whole entry, looked up): as above
Chain of PIK3CB (P42338 whole entry, looked up): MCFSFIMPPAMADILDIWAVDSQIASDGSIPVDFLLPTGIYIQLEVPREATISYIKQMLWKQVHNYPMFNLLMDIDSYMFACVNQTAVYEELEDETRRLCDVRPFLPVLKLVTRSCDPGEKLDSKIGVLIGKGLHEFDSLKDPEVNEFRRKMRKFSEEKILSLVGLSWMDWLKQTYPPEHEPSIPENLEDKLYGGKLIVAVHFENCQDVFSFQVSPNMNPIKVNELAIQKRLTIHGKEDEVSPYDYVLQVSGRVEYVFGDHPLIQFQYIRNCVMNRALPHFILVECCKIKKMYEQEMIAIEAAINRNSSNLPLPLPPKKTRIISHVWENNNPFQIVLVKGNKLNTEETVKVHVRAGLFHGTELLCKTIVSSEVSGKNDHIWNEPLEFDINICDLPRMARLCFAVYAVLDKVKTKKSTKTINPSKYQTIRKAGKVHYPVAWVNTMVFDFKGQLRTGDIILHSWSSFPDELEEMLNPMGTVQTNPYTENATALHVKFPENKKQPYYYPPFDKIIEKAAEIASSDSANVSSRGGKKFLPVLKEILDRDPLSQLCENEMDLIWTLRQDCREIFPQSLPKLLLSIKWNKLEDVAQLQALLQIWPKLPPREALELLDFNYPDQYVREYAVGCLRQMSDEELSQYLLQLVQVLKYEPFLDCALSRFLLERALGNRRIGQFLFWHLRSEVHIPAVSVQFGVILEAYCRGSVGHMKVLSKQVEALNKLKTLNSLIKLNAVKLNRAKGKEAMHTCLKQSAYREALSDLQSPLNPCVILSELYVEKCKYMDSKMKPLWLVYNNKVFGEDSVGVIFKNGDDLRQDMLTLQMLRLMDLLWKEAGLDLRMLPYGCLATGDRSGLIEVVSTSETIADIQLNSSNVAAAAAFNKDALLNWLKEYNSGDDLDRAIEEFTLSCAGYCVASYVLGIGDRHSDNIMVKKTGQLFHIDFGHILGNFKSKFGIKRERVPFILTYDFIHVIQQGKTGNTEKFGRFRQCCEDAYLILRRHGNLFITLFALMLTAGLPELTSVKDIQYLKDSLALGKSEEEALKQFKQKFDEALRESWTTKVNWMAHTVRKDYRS
Chain of PIK3CG (P48736 whole entry, looked up): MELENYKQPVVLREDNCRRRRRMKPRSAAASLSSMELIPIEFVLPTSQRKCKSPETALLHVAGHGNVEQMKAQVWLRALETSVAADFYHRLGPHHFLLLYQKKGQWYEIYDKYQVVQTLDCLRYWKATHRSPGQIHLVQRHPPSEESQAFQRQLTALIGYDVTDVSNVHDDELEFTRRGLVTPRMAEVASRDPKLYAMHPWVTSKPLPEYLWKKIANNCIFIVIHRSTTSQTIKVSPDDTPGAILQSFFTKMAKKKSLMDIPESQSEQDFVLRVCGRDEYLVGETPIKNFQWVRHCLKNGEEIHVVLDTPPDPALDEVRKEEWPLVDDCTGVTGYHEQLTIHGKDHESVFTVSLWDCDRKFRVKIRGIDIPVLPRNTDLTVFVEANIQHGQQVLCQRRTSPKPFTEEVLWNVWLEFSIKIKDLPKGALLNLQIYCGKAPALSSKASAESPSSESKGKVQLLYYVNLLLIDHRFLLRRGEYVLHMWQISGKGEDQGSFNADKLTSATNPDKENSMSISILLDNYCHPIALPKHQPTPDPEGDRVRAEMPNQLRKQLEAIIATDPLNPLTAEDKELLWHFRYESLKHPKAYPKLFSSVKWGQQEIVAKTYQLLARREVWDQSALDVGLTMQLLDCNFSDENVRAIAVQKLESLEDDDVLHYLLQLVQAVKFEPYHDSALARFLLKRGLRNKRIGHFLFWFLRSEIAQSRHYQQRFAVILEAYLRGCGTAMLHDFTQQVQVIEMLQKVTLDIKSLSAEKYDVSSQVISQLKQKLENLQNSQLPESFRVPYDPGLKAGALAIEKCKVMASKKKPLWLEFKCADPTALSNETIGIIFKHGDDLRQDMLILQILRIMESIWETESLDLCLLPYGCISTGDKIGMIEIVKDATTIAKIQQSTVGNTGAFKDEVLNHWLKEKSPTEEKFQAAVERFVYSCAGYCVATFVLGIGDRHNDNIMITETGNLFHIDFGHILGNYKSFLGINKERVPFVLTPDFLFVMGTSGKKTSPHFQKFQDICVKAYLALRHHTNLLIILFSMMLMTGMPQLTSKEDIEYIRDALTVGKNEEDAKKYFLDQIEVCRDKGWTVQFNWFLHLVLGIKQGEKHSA
Chain of PIK3CA (P42336 whole entry, looked up): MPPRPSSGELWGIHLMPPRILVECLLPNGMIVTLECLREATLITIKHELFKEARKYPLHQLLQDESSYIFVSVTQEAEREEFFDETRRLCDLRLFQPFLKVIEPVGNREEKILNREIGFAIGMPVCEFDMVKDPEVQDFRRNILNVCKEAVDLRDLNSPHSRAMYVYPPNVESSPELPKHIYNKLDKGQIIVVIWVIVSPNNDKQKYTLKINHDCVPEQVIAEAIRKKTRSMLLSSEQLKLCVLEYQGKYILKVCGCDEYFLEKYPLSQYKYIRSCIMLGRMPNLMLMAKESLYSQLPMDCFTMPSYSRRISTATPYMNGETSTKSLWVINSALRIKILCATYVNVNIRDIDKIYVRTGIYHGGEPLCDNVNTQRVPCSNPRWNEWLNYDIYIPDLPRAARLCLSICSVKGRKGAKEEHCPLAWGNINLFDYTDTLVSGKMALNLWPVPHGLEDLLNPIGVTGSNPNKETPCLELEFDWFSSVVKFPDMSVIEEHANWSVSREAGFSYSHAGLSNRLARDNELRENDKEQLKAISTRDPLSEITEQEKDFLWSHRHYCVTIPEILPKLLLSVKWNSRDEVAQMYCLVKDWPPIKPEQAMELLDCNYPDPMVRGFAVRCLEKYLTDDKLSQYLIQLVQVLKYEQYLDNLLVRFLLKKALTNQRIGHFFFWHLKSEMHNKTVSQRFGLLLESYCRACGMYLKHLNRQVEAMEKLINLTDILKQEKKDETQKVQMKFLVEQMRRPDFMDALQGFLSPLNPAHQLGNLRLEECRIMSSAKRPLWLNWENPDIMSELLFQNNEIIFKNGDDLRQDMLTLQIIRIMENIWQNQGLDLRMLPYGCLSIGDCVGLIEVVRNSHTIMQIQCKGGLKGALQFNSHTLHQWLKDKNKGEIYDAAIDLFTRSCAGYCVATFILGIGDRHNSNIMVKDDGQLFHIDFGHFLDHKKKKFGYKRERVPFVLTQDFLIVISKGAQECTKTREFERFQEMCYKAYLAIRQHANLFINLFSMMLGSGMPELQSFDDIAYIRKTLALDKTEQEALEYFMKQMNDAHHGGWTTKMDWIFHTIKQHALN

SMILES | inhibition (PIK3CB) | EC50 (PIK3CD (Human) [1]) | EC50 (PIK3CD (mouse) [3]) | EC50 (PIK3CD (Human) [4]) | inhibition (PIK3CA) | IC50 (PIK3CB) | other results
O=c1c2cc(O)ccc2nc(CSc2ncnc3[nH]cnc23)n1-c1ccccc1Cl | 24% | 2.9 µM |  |  |  |  | IC50 (PIK3CA): 100 µM
O=c1c2c(Cl)cccc2nc(CSc2ncnc3[nH]cnc23)n1-c1ccccc1Cl |  | 0.3 µM | 0.3 µM | 4.4 µM |  |  | EC50 (PIK3CD (Human) [2]): 0.3 µM
Cc1cccc2nc(Cn3cnc4c(N)ncnc43)n(-c3ccccc3C(C)C)c(=O)c12 |  | 0.5 µM | 0.1 µM | 3.4 µM | -10% |  | EC50 (PIK3CD (Human) [2]): 0.3 µM; IC50 (PIK3CA): 49 µM
Cc1cccc2nc(CSc3ncnc4[nH]cnc34)n(-c3ccccc3Cl)c(=O)c12 |  | 0.2 µM | 0.3 µM | 3.5 µM |  |  | EC50 (PIK3CD (Human) [2]): 0.3 µM; EC50 (PIK3CD (Human) [5]): 0.025 µM
O=c1c2ccccc2nc(CSc2ncnc3[nH]cnc23)n1Cc1ccccc1 | 42% | 1.3 µM | 1.2 µM |  |  | 80 µM | EC50 (PIK3CD (Human) [2]): 2 µM
O=c1c2cc3ccccc3cc2nc(CSc2ncnc3[nH]cnc23)n1-c1ccccc1Cl |  |  | 0.9 µM | 0.9 µM | 0% | 105 µM and 100 µM | IC50 (PIK3CA): 67 µM
Cc1cccc2nc(CSc3ncnc4[nH]cnc34)n(-c3ccccc3F)c(=O)c12 |  | 0.7 µM | 0.2 µM |  | 13% |  | IC50 (PIK3CA): 74 µM
Cc1cccc2nc(Cn3cnc4c(N)ncnc43)n(-c3ccccc3F)c(=O)c12 |  | 0.9 µM | 0.4 µM | 5 µM |  | 95 µM and 14 µM | IC50 (PIK3CA): 90 µM and 70 µM
Cc1cccc2nc(Cn3cnc4c(N)ncnc43)n(-c3ccccc3Cl)c(=O)c12 |  | 0.4 µM | 0.3 µM | 4.2 µM |  | 30 µM and 72 µM | 
Nc1ncnc2c1ncn2Cc1nc2ccc(Cl)cc2c(=O)n1-c1ccccc1Cl | 11% |  |  |  | 7% |  | 
CCOC(=O)Cn1c(CSc2ncnc3[nH]cnc23)nc2cccc(F)c2c1=O | 26% | 9 µM |  |  | 2% |  | 
Nc1ncnc2c1ncn2Cc1nc2cccc(Cl)c2c(=O)n1-c1ccccc1Cl |  | 0.3 µM | 0.2 µM | 5.3 µM |  | 6 µM and 44 µM | 
Cc1ccccc1-n1c(Cn2cnc3c(N)ncnc32)nc2cccc(C)c2c1=O |  |  | 0.1 µM |  |  |  | 
O=c1c2ccc([N+](=O)[O-])cc2nc(CSc2ncnc3[nH]cnc23)n1-c1ccccc1Cl | 9% |  |  |  | 17% |  | 
O=c1c2ccccc2nc(CSc2ncnc3[nH]cnc23)n1-c1cccc(Cl)c1 | 35% |  |  |  | 33% |  | 
COc1ccccc1Cn1c(CSc2ncnc3[nH]cnc23)nc2ccccc2c1=O | 27% | 5.5 µM | 0.9 µM | 4.1 µM |  | 31 µM | EC50 (PIK3CD (Human) [2]): 0.2 µM
Nc1ncnc2c1ncn2Cc1nc2cccc(F)c2c(=O)n1-c1ccccc1Cl | 18% | 4.3 µM | 0.7 µM | 3.9 µM |  | 46 µM | inhibition (PIK3CG): 9%
O=c1c2ccccc2nc(CSc2ncnc3[nH]cnc23)n1N1CCOCC1 |  | 5 µM | 0.9 µM |  |  |  | inhibition (PIK3CG): 57%
O=c1c2ccccc2nc(CSc2ncnc3[nH]cnc23)n1-c1ccccc1 |  |  | 1.4 µM |  |  |  | inhibition (PIK3CG): 39%
COc1ccccc1-n1c(CSc2ncnc3[nH]cnc23)nc2cccc(C)c2c1=O |  | 0.5 µM | 0.3 µM |  | 19% | 30 µM and 9 µM | IC50 (PIK3CA): 30 µM
COc1cccc(-n2c(CSc3ncnc4[nH]cnc34)nc3ccccc3c2=O)c1 | 36% |  |  |  | 23% |  | 
Nc1ncnc2c1ncn2Cc1nc2ccc(Br)cc2c(=O)n1-c1ccccc1Cl | 22% |  |  |  | 12% |  | 
O=c1c2ccccc2nc(CSc2ncnc3[nH]ncc23)n1-c1ccccc1Cl | 29% | > 20 µM | 3.1 µM | 5.9 µM | 38% |  | EC50 (PIK3CD (Human) [2]): 1 µM; IC50 (PIK3CA): 105 µM
O=c1c2ccccc2nc(CSc2ncnc3[nH]cnc23)n1-c1ccc(Cl)cc1 | 31% |  |  |  |  |  | IC50 (PIK3CA): 0.7 µM
Nc1ncnc2c1ncn2Cc1nc2cccc(F)c2c(=O)n1Cc1ccccc1 |  | 5 µM | 2 µM | 6.3 µM | -10% | 30 µM | 
COc1ccccc1-n1c(CSc2ncnc3[nH]cnc23)nc2ccccc2c1=O |  |  |  |  | 36% | 95 µM | 
CN1CCN(n2c(CSc3ncnc4[nH]cnc34)nc3ccccc3c2=O)CC1 |  |  |  |  |  | 61 µM | IC50 (PIK3CA): 105 µM

SMILES | inhibition (PIK3CB) | EC50 (PIK3CD (Human) [1]) | EC50 (PIK3CD (mouse) [3]) | EC50 (PIK3CD (Human) [4]) | inhibition (PIK3CA) | IC50 (PIK3CB) | other results
O=c1cc(N2CCOCC2)oc2c(-c3ccccc3)cccc12 |  |  | 0.9 µM |  |  |  | inhibition (PIK3CD (Human) [5]; concentration not given here): 100%
O=c1c2c(Cl)cccc2nc(CSc2ncnc3[nH]cnc23)n1-c1ccccc1-c1ccccc1 | 27% |  | 1.4 µM |  |  | 13 µM | 
O=c1c2c(F)cccc2nc(CSc2ncnc3[nH]cnc23)n1-c1ccccc1Cl |  | 1.3 µM | 1.2 µM | 1.8 µM |  |  | EC50 (PIK3CD (Human) [2]): 2 µM; inhibition (PIK3CG): 83%
O=c1c2cccc(Cl)c2nc(CSc2ncnc3[nH]cnc23)n1-c1ccccc1Cl |  |  | 1.8 µM | 3.5 µM |  | 110 µM | IC50 (PIK3CA): 100 µM
COc1cc2nc(CSc3ncnc4[nH]cnc34)n(-c3ccccc3Cl)c(=O)c2cc1OC | 19% |  |  |  | 9% |  | 
O=c1c2ccccc2nc(CSc2ncnc3[nH]cnc23)n1-c1ccncc1 |  |  |  |  | 30% | 25 µM | 
CCCCn1c(CSc2ncnc3[nH]cnc23)nc2ccccc2c1=O |  | 5 µM | 1.4 µM | 2.9 µM |  |  | 
O=c1c2cc(F)c(F)cc2nc(CSc2ncnc3[nH]cnc23)n1-c1ccccc1Cl |  | 2 µM | > 2 µM |  |  | 110 µM and 58 µM | 
O=c1c2cc(Br)ccc2nc(CSc2ncnc3[nH]cnc23)n1-c1ccccc1Cl | -8% |  |  |  | 11% |  | 
Nc1ncnc2c1ncn2Cc1nc2cccc(Cl)c2c(=O)n1-c1ccccc1F |  | 0.3 µM | 0.3 µM |  |  | 108 µM and 11 µM | IC50 (PIK3CG): 50 µM
O=c1c2c(Cl)cccc2nc(CSc2ncnc3[nH]cnc23)n1-c1ccccc1F |  | 0.9 µM | 0.3 µM |  |  | 105 µM and 55 µM | 
CCCCn1c(Cn2cnc3c(N)ncnc32)nc2ccccc2c1=O |  |  |  |  | 1% | 41 µM | 
Nc1ncnc2c1ncn2Cc1nc2ccccc2c(=O)n1N1CCOCC1 | 43% |  |  |  | 11% |  | 
Nc1ncnc2c1ncn2Cc1nc2c(Cl)cccc2c(=O)n1-c1ccccc1Cl |  |  | 1 µM |  | 18% | 68 µM | 
Nc1ncnc2c1ncn2Cc1nc2cc(F)ccc2c(=O)n1-c1ccccc1Cl | 47% |  | 3.9 µM | 5.7 µM |  |  | IC50 (PIK3CA): 92 µM
COc1cccc(Cn2c(CSc3ncnc4[nH]cnc34)nc3ccccc3c2=O)c1 |  |  |  |  |  |  | IC50 (PIK3CG): 72 µM
O=c1c2cc(Cl)ccc2nc(CSc2ncnc3[nH]cnc23)n1-c1ccccc1Cl | 31% |  |  |  | 31% |  | 
O=c1c2c(F)cccc2nc(CSc2ncnc3[nH]cnc23)n1Cc1ccccc1 | 23% |  | 1.4 µM | 2.6 µM | 17% |  | 
Cc1cccc2nc(CSc3ncnc4[nH]cnc34)n(-c3c(Cl)cccc3Cl)c(=O)c12 |  |  | 0.6 µM |  | 8% | 11 µM and 103 µM | IC50 (PIK3CA): 19 µM
Nc1ncnc2c1ncn2Cc1nc2cccc(Cl)c2c(=O)n1-c1ccccc1-c1ccccc1 |  | 10.5 µM | 0.3 µM |  | 30% | 6 µM and 18 µM | IC50 (PIK3CA): 82 µM
Cc1ccccc1-n1c(CSc2ncnc3[nH]cnc23)nc2cccc(Cl)c2c1=O |  | 0.3 µM | 0.2 µM |  | 26% |  | IC50 (PIK3CA): 48 µM
O=c1c2cc(F)ccc2nc(CSc2ncnc3[nH]cnc23)n1-c1ccccc1Cl | 19% | 1 µM | 0.4 µM |  |  | 13 µM | 
COc1cc2nc(Cn3cnc4c(N)ncnc43)n(-c3ccccc3Cl)c(=O)c2cc1OC |  |  |  |  | 17% | 45 µM | 
O=c1c2ccccc2nc(CSc2ncnc3[nH]cnc23)n1-c1ccccc1Cl |  | 2.2 µM | 0.9 µM | 5.5 µM |  |  | EC50 (PIK3CD (Human) [2]): 1 to 5 µM; EC50 (PIK3CD (Human) [6]): 2 µM; inhibition (PIK3CD (mouse) [7]): 99%; EC50 (PIK3CD (Human) [8]): 2 µM
O=c1c2cccc(C(F)(F)F)c2nc(CSc2ncnc3[nH]cnc23)n1-c1ccccc1Cl | 7% |  |  |  | 12% |  | IC50 (PIK3CD): 4.2 µM
Cc1cccc2nc(CSc3ncnc4[nH]cnc34)n(-c3ccccc3C(C)C)c(=O)c12 |  | 0.3 µM | 0.2 µM | 2.9 µM |  |  | 
O=c1c2ccc(F)cc2nc(CSc2ncnc3[nH]cnc23)n1-c1ccccc1Cl | -1% |  | 1.8 µM | 2.3 µM |  | 110 µM | inhibition (PIK3CG): 40%
